According to PubChem BioAssay (NCI):
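A five-concentration, 48-hour dose response in 96-well plates underlies each endpoint, interpolated linearly between surrounding concentrations. The concentration for 50% growth inhibition is given as GI50. TGI denotes the concentration required for complete inhibition of growth.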

What was measured:
Assay in all cases: NCI-60 cell line screen, 48 h
[1] = tested on: CCRF-CEM leukemia
[2] = tested on: TK-10 renal
[3] = tested on: COLO 205 colon
[4] = tested on: NCI-H460 lung
[5] = tested on: SF-268 CNS
[6] = tested on: RPMI-8226 leukemia
[7] = tested on: T-47D breast
[8] = tested on: HS 578T breast
[9] = tested on: MDA-MB-231 breast
[10] = tested on: PC-3 prostate

Structure (SMILES) | TGI [1] [µM] | TGI [2] [µM] | TGI [3] [µM] | TGI [4] [µM] | TGI [5] [µM] | TGI [6] [µM] | TGI [7] [µM] | TGI [8] [µM] | TGI [9] [µM] | TGI [10] [µM] | GI50 [2] [µM] | GI50 [3] [µM] | GI50 [5] [µM] | GI50 [6] [µM] | GI50 [1] [µM] | GI50 [4] [µM] | GI50 [7] [µM] | GI50 [10] [µM] | GI50 [8] [µM] | GI50 [9] [µM]
Cc1c2c(cc3c(=O)ccn(CCN(C)C)c13)c(=O)ccn2CCN(C)C | 27.9 | 51.3 | 24.7 | 14.1 | 21.8 |  |  |  |  |  |  |  |  |  |  |  |  |  |  | 
CC1C(=O)O[C@H]2C1CC[C@@]1(C)[C@H](O)CC[C@@]13C[C@]2(O)OO3 (stereo not given in full) | > 100 | > 100 | > 100 | > 100 | > 100 | > 100 |  |  |  |  |  |  |  |  |  |  |  |  |  | 
COc1ccc(-c2cc(=O)c3c(OC)c(OC)c(OC)c(OC)c3o2)c(OC)c1 | > 100 | > 100 | 34.3 | > 100 | > 100 | > 100 | 59.5 | 49.4 | > 100 |  |  |  |  |  |  |  |  |  |  | 
CCOP(=O)(OCC)C1=NC=CC=CC1n1c(-c2ccccc2)nn(CC)c1=O (stereo not given) | > 100 | > 100 | > 100 | > 100 | > 100 | > 100 |  |  |  |  |  |  |  |  |  |  |  |  |  | 
Cc1cc(N(CCCl)CCCl)ccc1/C=N/NC(=O)Cc1cc(=O)oc2cc(O)ccc12 | 46 |  | 36.7 | 30.5 | 56.4 | 57.5 | 56.9 | 56.3 | 86.8 | 27.5 |  |  |  |  |  |  |  |  |  | 
O=C(CC1C=CCS1(=O)=O)NCc1ccccc1 (stereo not given) | > 100 | > 100 | > 100 | > 100 | > 100 |  | > 100 | > 100 | > 100 | > 100 |  |  |  |  |  |  |  |  |  | 
N#CC1CC2(C(=O)C1=O)c1ccccc1-c1ccccc12 (stereo not given) | > 100 | > 100 | > 100 | > 100 | > 100 |  |  |  |  |  |  |  |  |  |  |  |  |  |  | 
CCOC(=O)/C(=C\c1ccc[nH]1)C(=O)c1ccccc1 | > 100 | > 100 | > 100 | > 100 | > 100 | > 100 |  |  |  |  |  |  |  |  |  |  |  |  |  | 
O=c1c2cccnc2ncn1CCN1CCCC1 | > 100 | > 100 | > 100 | > 100 | > 100 |  |  |  |  |  |  |  |  |  |  |  |  |  |  | 
CC/C=C/c1cc2cc[nH]c2c2c1C(C)C[C@@H]2C (stereo not given in full) | 61.9 | > 100 | 37.6 | 65.3 |  | 53.4 |  |  |  |  |  |  |  |  |  |  |  |  |  | 
COc1ccccc1-c1cc(=O)c2ccc(OC)c(OC)c2o1 | > 100 | > 100 | > 100 | > 100 | > 100 | > 100 | 75.5 | > 100 | > 100 |  |  |  |  |  |  |  |  |  |  | 
CSc1ncnc2c1CCN2 |  | > 100 | > 100 |  | > 100 |  |  |  |  |  | > 100 | > 100 | > 100 |  |  |  |  |  |  | 
Cc1nc(C(N)=S)sc1C(=O)C/C(=N/N)C(=O)Nc1ccc(Cl)cc1 |  | > 100 |  | > 100 | > 100 | > 100 | > 100 | > 100 | > 100 | > 100 |  |  |  |  |  |  |  |  |  | 
COc1cc2c(c(OC)c1OC)-c1ccc(OC)c(=O)cc1[C@@H](N(C)C=O)CC2 | > 100 | > 100 | 0.0251 |  | > 100 | > 100 |  |  |  |  |  |  |  |  |  |  |  |  |  | 
COc1cc(/C=C(\OC(C)=O)c2ccc3c(c2)OCO3)cc(OC)c1OC | > 100 | > 100 | 51.5 | > 100 | 67.5 | 76.6 |  |  |  |  |  |  |  |  |  |  |  |  |  | 
CCC(C(=O)c1ccccc1)C(CCCC(=O)Nc1c(C)cccc1C)N=O (stereo not given) | > 100 | > 100 | > 100 | > 100 | > 100 | > 100 |  |  |  |  |  |  |  |  |  |  |  |  |  | 
Cc1ccc2c(c1)CNc1ccc(C)cc1CN2 | > 100 |  | > 100 | > 100 | > 100 | > 100 |  |  |  |  |  |  |  |  |  |  |  |  |  | 
O=C(NCc1ccncc1)C1COc2cc(-c3cc(=O)c4ccccc4o3)ccc2O1 (stereo not given) | > 100 | > 100 |  | > 100 |  |  |  |  |  |  |  |  |  |  |  |  |  |  |  | 
CC(C)C(=O)/C=C/c1ccc(Cl)c(Cl)c1 | 81.7 | 28.8 | 52.3 | 48 | 40.4 | 87 |  |  |  |  |  |  |  |  |  |  |  |  |  | 
Cc1ccc(Oc2ccc([N+](=O)[O-])cc2[N+](=O)[O-])c(C)c1 | > 100 | > 100 |  | > 100 |  | 97.7 |  |  |  |  |  |  |  |  |  |  |  |  |  | 
C1COCCOCCOCCOCCO1.CC(=O)[CH-]C(C)=O.CC(=O)[CH-]C(C)=O.CC(=O)[CH-]C(C)=O.[V] | 41.3 | 52 | 35.1 | 99.4 | 65.8 | 50 |  |  |  |  | 14.1 | 18.7 | 20.6 | 20.5 | 19.1 | 22.7 |  |  |  | 
N#Cc1c(N)nc(N2CCOCC2)c(C#N)c1-c1ccccc1Cl | > 100 |  | > 100 | > 100 | 85.7 | > 100 | > 100 | > 100 | > 100 | > 100 |  | 38.1 | 25.4 | 21.5 | 45 | 26.8 | 21.2 | 22.6 | 23.6 | 31.2
c1ccc(COC2(OCc3ccccc3)CC3OC2C2NN=NC32)cc1 (stereo not given) | 33.1 |  | > 100 | > 100 | 51 | 41.9 |  |  |  |  |  |  |  |  |  |  |  |  |  | 
CCSc1nnc(-c2ccc3ccccc3c2O)n1-c1ccc(Cl)cc1 | > 100 |  | > 100 | > 100 | > 100 | > 100 | > 100 | > 100 | > 100 | > 100 |  | 47.4 | 26.1 | 4.83 | 3.58 | 3.27 | 8.96 | 50.1 | 85.4 | > 100
NC(=O)c1ccc2nc3c(n2c1)C(=O)C(=O)c1ccccc1-3 | 5.42 | 3.23 | 3.82 | 3.34 | 1.66 | 5.52 | 2.54 |  | 2.32 | 2.78 | 1.82 | 1.91 | 0.436 | 2.2 | 0.931 | 1.53 | 0.415 | 1.04 |  | 0.85
Cc1ccc(Sc2sc(-c3ccccc3)nc2[P+](c2ccccc2)(c2ccccc2)c2ccccc2)cc1 | 2 | 1.64 | 0.412 | 1.09 | 1.43 | 0.523 |  |  | 0.943 | 1.18 | 0.336 | 0.195 | 0.366 | 0.178 | 0.373 | 0.314 |  | 0.283 |  | 0.251
